Experimental findings from PubChem BioAssay (NCI) are described below.

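In this assay, cells in 96-well plates receive the compound at five concentrations for 48 hours. Endpoints are linearly interpolated between the surrounding concentrations. Definition used: TGI = concentration required for complete inhibition of growth.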 Bounds are passed on as bounds.

Some test systems named below: SK-MEL-28 melanoma; SW-620 colon; 786-0 renal; NCI-H522 lung; ACHN renal; MOLT-4 leukemia; SK-OV-3 ovarian; RXF 393 renal; SF-295 CNS; PC-3 prostate.
What all share (test): NCI tumour cell line growth inhibition, 48 h

Consider `CC(C)(C)OC(=O)NCCCCC(NC(=O)c1ccccc1)C(N)=O` (stereo not given), for which the TGI in the assay on SK-MEL-28 melanoma, in the assay with SW-620 colon, in the assay on 786-0 renal, in the assay on NCI-H522 lung, with ACHN renal and with MOLT-4 leukemia was > 100 µM in each case. In addition, the TGI in the assay on SK-OV-3 ovarian, with RXF 393 renal, in the assay with SF-295 CNS and in the assay with PC-3 prostate was > 100 µM throughout.

`CCOC(=O)Oc1ccc2c(c1)c(=O)c1c(NCCN(CC)CC)ccc3nnn2c31`: the TGI in the assay on SK-MEL-28 melanoma turned out to be 24.1 µM; in the assay on SW-620 colon it was 13.2 µM; in the assay on 786-0 renal, 13 µM; in the assay with NCI-H522 lung, 6.61 µM; in the assay with ACHN renal it was 11.6 µM; in the assay with MOLT-4 leukemia it was 13.6 µM. Moreover, the TGI came out at 22.6 µM in the assay with SK-OV-3 ovarian, 18.8 µM in the assay with RXF 393 renal, 19.5 µM with SF-295 CNS and 15.1 µM in the assay with PC-3 prostate.

For the compound `O=C1Nc2ccccc2/C1=c1\[nH]c(=O)/c(=C\c2ccc(OCc3ccccc3)cn2)[nH]c1=O`, the TGI in the assay with SK-MEL-28 melanoma, in the assay with SW-620 colon, in the assay with 786-0 renal, in the assay with NCI-H522 lung, in the assay on ACHN renal and in the assay with MOLT-4 leukemia was > 100 µM each time. Besides, the TGI is > 100 µM in the assay with SK-OV-3 ovarian, 34.9 µM with RXF 393 renal, 50.5 µM in the assay on SF-295 CNS and > 100 µM in the assay with PC-3 prostate.

Take `CC(=N\N)/C(C)=N/N=C(C)/C(C)=N/N=C(C)/C(C)=N/N`: the TGI with SK-MEL-28 melanoma, in the assay on SW-620 colon, with 786-0 renal, in the assay on NCI-H522 lung, in the assay on ACHN renal and in the assay with MOLT-4 leukemia was > 100 µM throughout. The TGI in the assay with SK-OV-3 ovarian, in the assay on RXF 393 renal, with SF-295 CNS and in the assay with PC-3 prostate was > 100 µM each time.

On to `N#C[C@H](c1nc2ccccc2s1)c1nc2ccccc2nc1Cl`, for which the TGI with SK-MEL-28 melanoma was > 100 µM; in the assay with SW-620 colon, > 100 µM; with 786-0 renal it was > 100 µM; in the assay on NCI-H522 lung, > 100 µM; in the assay on ACHN renal it was 29.8 µM; with MOLT-4 leukemia it was > 100 µM. Also, the TGI in the assay on SK-OV-3 ovarian is 73 µM; with RXF 393 renal it was 32 µM; in the assay with SF-295 CNS it was 35.7 µM; in the assay with PC-3 prostate, > 100 µM.

Regarding `Cn1c(N/N=C/c2ccccc2)nc(-c2ccc([N+](=O)[O-])cc2)c(C#N)c1=O`, the TGI in the assay on SK-MEL-28 melanoma, in the assay with SW-620 colon, with 786-0 renal, in the assay on NCI-H522 lung, with ACHN renal and in the assay with MOLT-4 leukemia was > 100 µM in each case. Further, the TGI with SK-OV-3 ovarian, in the assay on RXF 393 renal, in the assay on SF-295 CNS and with PC-3 prostate was > 100 µM each time.

In the case of `Clc1ccc(OCc2nn3c(CCc4nnc5sc(COc6ccc(Cl)cc6)nn45)nnc3s2)cc1`, the TGI with SK-MEL-28 melanoma is > 100 µM; in the assay on SW-620 colon, > 100 µM; in the assay with 786-0 renal it was > 100 µM; with NCI-H522 lung, 30.1 µM; with ACHN renal it was 41 µM; with MOLT-4 leukemia it was > 100 µM. For the same compound, the TGI with SK-OV-3 ovarian is > 100 µM; in the assay on RXF 393 renal it was 61.2 µM; in the assay on SF-295 CNS, > 100 µM; in the assay with PC-3 prostate it was 53.1 µM.

For `CCc1nc2ccc(NCCN(C)C)c3c(=O)c4ccccc4n1c23`, the TGI in the assay on SK-MEL-28 melanoma was 9.43 µM; in the assay with SW-620 colon it was 4.99 µM; in the assay with 786-0 renal, 7.66 µM; in the assay on NCI-H522 lung, 4.89 µM; in the assay with ACHN renal, 6.03 µM; in the assay with MOLT-4 leukemia, 6.28 µM. In addition, the TGI came to 13.3 µM in the assay with SK-OV-3 ovarian, 6.03 µM in the assay on RXF 393 renal, 5.04 µM in the assay with SF-295 CNS and 6.44 µM in the assay on PC-3 prostate.

Take `COC(OC)[C@@H]1OC[C@@H](O)[C@@H]1n1cnc2c(N)ncnc21`: the TGI in the assay on SK-MEL-28 melanoma, in the assay with SW-620 colon, in the assay with 786-0 renal, with NCI-H522 lung, with ACHN renal and with MOLT-4 leukemia was > 100 µM throughout. Moreover, the TGI with SK-OV-3 ovarian, in the assay with RXF 393 renal, with SF-295 CNS and in the assay with PC-3 prostate was > 100 µM each time.
